We go through two molecules from patent US10668041B2, “Compositions and methods comprising medium chain triglycerides for treatment of epilepsy” (Societe des Produits Nestle SA, priority 2014, dated 2020).

Where two headings read alike, the source gives them in different places.

A short description of data set [1]: Crossover dietary trial: serum AED concentration. Type of data set: in vivo, canine. The note with it: for concentration at 3 months: both sexes, mixed: 17 different breeds and cross breeds, dog, in vivo, read-out: serum concentration of PB. As to the method:
A 6-month prospective, randomized, double blinded, placebo controlled, crossover dietary trial comparing an MCT-containing diet to a standardized placebo diet containing no MCTs in canine epilepsy was performed. Subjects were fed either the MCT or placebo diet for 3 months (Day 1 to Day 90±2 days) followed by a subsequent respective switch of diet for a further 3 months (Day 90 to Day 180±2 days). Relevant data were collected on the following variables at visit 1 (Day −2), visit 2 (Day 90±2 days) and visit 3 (day 180±2 days): seizure frequency; body weight; measurements of serum phenobarbital (PB) and/or (potassium bromide) KBr concentration as appropriate; dynamic bile acids; complete blood cell count; standard clinical serum chemistry; and adverse events.
Seizure frequency refers to the number of seizures per month and seizure-days refers to the number of days in a month with seizure occurrence. The severity of seizures was analyzing using the McNemar test by comparing the presence of cluster seizures between diet groups. Comparisons made between the MCT and placebo standardized diet groups were made using match-paired student's t tests for parametric data and Wilcoxon matched-pairs signed rank test for non-parametric data where both were used two-sided and P<0.05 was considered significant. Non-parametric data are presented as median (25-75% percentile) and parametric data are shown as mean (+/−SD).
The present study used twenty-one dogs of 17 different canine breeds including: American bulldog; 2 Beagles; 2 Border Collies; Boxer; Cavalier King Charles Spaniel; English Bull Terrier; English Springer Spaniel; German Shepherd; Golden Retriever; Lhasa Apso; Mastiff; Rhodesian Ridgeback; Saint Bernard; Siberian Husky; Slovakian Rough Haired Pointer; Welsh Springer Spaniel and 3 Cross breeds. The study population consisted of 15 males, of which 10 were neutered and 5 were intact and 6 females of which 4 were neutered and 2 were intact. The dogs were of 4.59±1.73 years of age and weighed 29.79±14.73 kilograms at start of trial. All 21 dogs received PB. Most dogs were also treated additionally with KBr (n=18). Some dogs were chronically treated with a third AED, imepitoin (n=1) or levetiracetam (n=4). Twelve owners had rectal diazepam or levetiracetam for pulse therapy at home available for the acute treatment of cluster seizure episodes. There was no difference for the acute or chronic treatment regimens between the placebo or MCT phase.

For data set [2], the system named is fifteen year old Dalmatian diagnosed with idiopathic epilepsy. Briefly: Example 2 case: Dalmatian with idiopathic epilepsy. Type of data set: in vivo, canine. The note with it: treatment subsequently discontinued. From the text: A fifteen year old Dalmatian was diagnosed with idiopathic epilepsy at age 3. Seizure phases of prodrome, aura, ictus, and postictal state were generally one to two […] in length. […] Subsequent treatment was proscribed in the form of an MCT diet (commercially available ProPlan® Senior 7+Chicken and Rice formula formulated to contain 5.6% MCTs, at least 26% crude protein, at least 15% crude fat, and 50% carbohydrates with less than 2% as crude fiber).

With `CCC1(c2ccccc2)C(=O)NC(=O)NC1=O` [PB, phenobarbital], the concentration at 3 months is 32.5 µg/mL in data set [1] (MCT diet, spread 25.00-36.75 μg/ml, p=0.4233, no significant change) and 26.5 µg/mL in data set [1] (placebo-standardized diet, spread 23.50-34.00 μg/ml).
With `[Br-].[K+]` [potassium bromide], the “serum concentration of potassium bromide” value in data set [1] (MCT diet, spread 1.02-1.61 mg/ml, p=0.4037, no significant change) turned out to be 1290 µg/mL; in data set [1] (placebo-standardized diet, spread 1.09-1.89 mg/ml), 1230 µg/mL. Besides, in data set [2], the side effects entry is “polyphagia, sedation, and ataxia”.
